COc1ccc(C)cc1-n1nnc2cc(F)c(-n3c(=O)cc(C(F)(F)F)[nH]c3=O)cc21 [Example 2, 3-[5-fluoro-1-(2-methoxy-5-methylphenyl)-1H-1,2,3-benzotriazol-6-yl]-6-(trifluoromethyl)-2,4(1H,3H)-pyrimidinedione]
melting point: 145 to 150 °C

CCc1ccc(-n2nnc3cc(F)c(-n4c(=O)cc(C(F)(F)F)[nH]c4=O)cc32)cc1 [Example 3, 3-[1-(4-ethylphenyl)-5-fluoro-1H-1,2,3-benzotriazol-6-yl]-6-(trifluoromethyl)-2,4(1H,3H)-pyrimidinedione]
melting point: 160 to 164 °C

From patent US20020111274A1, “1-alkyl-3-[1-(substituted phenyl) benzotriazol-6-yl] uracils” (BASF Aktiengesellschaft, priority 2000, published 2002)
